# Where two headings read alike, the source gives them in different places.
# Key:
# [1] = system: Hs746T tumors; type: in vivo, mice; settings: for % Inhibition: PM00104 0.9 and doxorubicin 6 mg/kg/day
# From the text: (§1) Female athymic nude mice (Harlan Sprague Dawley, Madison, Wis.) were utilized for all experiments. Animals were housed in ventilated rack caging with food and water ad libitum. The mice were acclimated for at least 5 days prior to tumor implantation with a tumor cell suspension.
# The tumor model used in these studies was Hs746T cell line, which was obtained from the ATCC (Manassas, Va.).
# Treatments were initiated on DPI 15.
# 5-FU was provided as a solution which was further diluted with water for injection.
# (§2) Tumor size measurements were recorded twice weekly from the treatment initiation until the termination of the study.
# (§3) Mean, standard deviation and standard error of the mean were determined for tumor volume for all animal groups at all assessments. Student's t test was performed on tumor volumes at each measurement day, including at the end of the study, to determine whether there were any statistically significant differences between combination treatment groups and single monotherapy treatment groups.
# [2] = system: MCF-7 (breast cancer) cell line; experiment: IC50 determination, MIT (tetrazolium) assay, 72 h (Example 18); type: cell-based; settings: Homo sapiens, MCF7; MCF-7, 72 hours of drug exposure
# Experimental: (§4) Before plating, cell cultures were trypsinized and cell number estimated using an automated flow cytometer.
# (§5) Cells were harvested and seeded in 96 well microtiter plates at the appropriate cell density (5,000-10,000 cells) in 150 μL of media and incubated for 24 hours to allow the cells to attach before drug addition.
# (§6) After the incubation period (72 hours), 50 μL of MIT solution was added to each microtiter well and incubated for further 8 hours at 37° C. The culture medium was then removed and 50 μl, of DMSO were added to dissolve the MIT crystals. Optical densities were read at 540 nm on spectrophotometer microplate reader.
# (§7) IC50 values were calculated from an average of two to four assays for each of the test agents.
# [3] = system: MDA-MB-231 (breast cancer) cell line; experiment: as above; type: cell-based; settings: Homo sapiens; MDA-MB-231, 72 hours of drug exposure
# Experimental: as §4, §5, §6, §7
# [4] = system: HGC-27 human gastric carcinoma cell line; experiment: IC50 determination, MTS assay, 72 h (Example 1); type: cell-based; settings: Homo sapiens, 72 hours of drug exposure, read-out: IC50
# Experimental: (§8) The human gastric carcinoma cell lines selected for this assay were the following: Hs746T, HGC-27, and AGS cell lines. Hs746T and AGS cell lines were grown in Dulbecco's modified Eagle's medium (DMEM) supplemented with 10% Fetal Bovine Serum (FBS), 1.5 g/L sodium bicarbonate, 4.5 g/L glucose and 4 mM L-glutamine. HGC-27 cell line was grown in Iscove's modified Dulbecco's medium (IMDM) supplemented with 20% FBS and 2 mM L-glutamine.
# (§9) The day before plating, the cells were fed with fresh, complete growth media. On the harvest (plating) day, cells were counted by Trypan Blue exclusion staining method.
# (§10) Cells were harvested and seeded in 96 well microtiter plates at 10,000 cells density in 150 μL of media and incubated for 24 hours to allow the cells to attach before drug addition. To collect reference data, the MTS assay was done on untreated cells at time 0 (after incubation of cells for 24 hours).
# (§11) The cytotoxic effect was measured by the MTS Assay (Tetrazolium), which is a colorimetric method for determining the number of viable cells. After the incubation period (24 hours for the Day 0 plate and 72 hours for the Test and Control plates), 25 μL of MTS+PMS solution was added to each microtiter well and incubated for 4 hours at 37° C. Plates were then removed from incubator and placed on plate shaker for 5 minutes (covered with aluminum foil for protection from light). Optical densities were read at 490 nm on spectrophotometer plate reader.
# as §7
# [5] = system: AGS human gastric carcinoma cell line; experiment: IC50 determination, MTS assay, 72 h (Example 1); type: cell-based; settings: Homo sapiens, 72 hours of drug exposure, read-out: IC50
# Experimental: as §8, §9, §10, §11, §7
# [6] = system: Hs746T human gastric carcinoma cell line; experiment: IC50 determination, MTS assay, 72 h (Example 1); type: cell-based; settings: Homo sapiens, 72 hours of drug exposure, read-out: IC50
# Experimental: as §8, §9, §10, §11, §7
# [7] = system: MRI-H-254 tumors; type: in vivo, mice
# Experimental: as §1, with “with” for “with a”, “fragments. The Vehicle Control group contained 11 mice, groups 2-6 contained 8 mice/group, and the rest of groups contained 9 mice/group.” for “cell suspension.”
# This cell line was grown and implanted to the animals as described in Example 11.
# Tumor measurements were determined as disclosed in Example 4. […] Treatments were initiated on DPI 17.
# PM00104 was provided in the form of vials of lyophilized PM00104 powder which was reconstituted with water for injection.
# as §2, §3
# The definition and criteria for the evaluation of potentiation and the degree of additivity for the combination therapy were the same as those disclose in Example 4.
# [8] = PM00104 0.9, 5-FU 50 (DPI 15) then 100 (DPI 22 & 29), irinotecan 20, doxorubicin 6 mg/kg/day
# [9] = PM00104 0.90 IV, doxorubicin 6 IP, paclitaxel 12.5 IP mg/kg/day (G2, G5, G6, G7, G8)
structure (smiles),measurement,setting,value
"COc1cccc2c1C(=O)c1c(O)c3c(c(O)c1C2=O)C[C@@](O)(C(=O)CO)C[C@@H]3O[C@H]1C[C@H](N)[C@H](O)[C@H](C)O1 [Doxorubicin, doxorubicin]",% T/C on day 15,[1]; [8],104.2%
same,% T/C on day 19,[1]; [8],79.8%
same,% T/C on day 26,[1]; [8],48.9%
same,% T/C on day 29,[1]; [8],40.2%
same,% T/C on day 33,[1]; [8],51.4%
same,% Inhibition,[1]; day 15,−4.2%
same,% Inhibition,[1]; day 19,20.2%
same,% Inhibition,[1]; day 22,52.6%
same,% Inhibition,[1]; day 26,51.1%
same,% Inhibition,[1]; day 29,59.8%
same,% Inhibition,[1]; day 33,48.6%
same,IC50,[2],4 µM
same,IC50,[3],1.9 µM
same,IC50,[4],0.177 µg/mL
same,IC50,[5],0.156 µg/mL
same,IC50,[6],8.97 µg/mL
same,% T/C on day 17,[7]; [9],98.2%
same,% T/C on day 20,[7]; [9],93.5%
same,% T/C on day 24,[7]; [9],76.2%
same,% T/C on day 27,[7]; [9],64.4%
same,% T/C on day 32,[7]; [9],56.3%
same,% T/C on day 35,[7]; [9],24.8%
same,% T/C on day 39,[7]; [9],19.7%
same,% T/C on day 47,[7]; [9],15.7%
same,% Inhibition,"[7]; day 14, PM00104 0.23, doxorubicin 6, paclitaxel 12.5 mg/kg/day",1.8%
same,% Inhibition,"[7]; day 14, PM00104 0.45, doxorubicin 6, paclitaxel 12.5 mg/kg/day",1.8%
same,% Inhibition,"[7]; day 14, PM00104 0.9 and doxorubicin 6 mg/kg/day",1.8%
same,% Inhibition,"[7]; day 20, PM00104 0.23, doxorubicin 6, paclitaxel 12.5 mg/kg/day",6.5%
same,% Inhibition,"[7]; day 20, PM00104 0.45, doxorubicin 6, paclitaxel 12.5 mg/kg/day",6.5%
same,% Inhibition,"[7]; day 20, PM00104 0.9 and doxorubicin 6 mg/kg/day",6.5%
same,% Inhibition,"[7]; day 24, PM00104 0.23, doxorubicin 6, paclitaxel 12.5 mg/kg/day",23.8%
same,% Inhibition,"[7]; day 24, PM00104 0.45, doxorubicin 6, paclitaxel 12.5 mg/kg/day",23.8%
same,% Inhibition,"[7]; day 24, PM00104 0.9 and doxorubicin 6 mg/kg/day",23.8%
same,% Inhibition,"[7]; day 27, PM00104 0.23, doxorubicin 6, paclitaxel 12.5 mg/kg/day",35.6%
same,% Inhibition,"[7]; day 27, PM00104 0.45, doxorubicin 6, paclitaxel 12.5 mg/kg/day",35.6%
same,% Inhibition,"[7]; day 27, PM00104 0.9 and doxorubicin 6 mg/kg/day",35.6%
same,% Inhibition,"[7]; day 32, PM00104 0.23, doxorubicin 6, paclitaxel 12.5 mg/kg/day",43.7%
same,% Inhibition,"[7]; day 32, PM00104 0.45, doxorubicin 6, paclitaxel 12.5 mg/kg/day",43.7%
same,% Inhibition,"[7]; day 32, PM00104 0.9 and doxorubicin 6 mg/kg/day",43.7%
same,% Inhibition,"[7]; day 35, PM00104 0.23, doxorubicin 6, paclitaxel 12.5 mg/kg/day",75.2%
same,% Inhibition,"[7]; day 35, PM00104 0.45, doxorubicin 6, paclitaxel 12.5 mg/kg/day",75.2%
same,% Inhibition,"[7]; day 35, PM00104 0.9 and doxorubicin 6 mg/kg/day",75.2%
same,% Inhibition,"[7]; day 39, PM00104 0.23, doxorubicin 6, paclitaxel 12.5 mg/kg/day",80.3%
same,% Inhibition,"[7]; day 39, PM00104 0.45, doxorubicin 6, paclitaxel 12.5 mg/kg/day",80.3%
same,% Inhibition,"[7]; day 39, PM00104 0.9 and doxorubicin 6 mg/kg/day",80.3%
same,% Inhibition,"[7]; day 47, PM00104 0.23, doxorubicin 6, paclitaxel 12.5 mg/kg/day",84.3%
same,% Inhibition,"[7]; day 47, PM00104 0.9 and doxorubicin 6 mg/kg/day",84.3%

# — patent US20110070232A1, “Combination Therapy with an Antitumor Alkaloid” (Pharma Mar, S.A., priority 2008, published 2011)
